Paper PMC3487892, “The Pentameric Channel of COMPcc in Complex with Different Fatty Acids” (PLoS ONE, 2012)
Positions count from the first letter of the chain named.

How the values were obtained:
Q54I = Q54I mutant; ref [9], [27]; cited from earlier work
COMPcc [1] = conditions: wild type COMPcc; ref [9], [27]; cited from earlier work
COMPcc [2] = target: T1, COMPcc (Rattus norvegicus, UniProt P35444); assay: Displacement of CPA from the CPA-COMPcc complex by fatty acids (fluorescence); assay type: binding; conditions: for Kd: calculated from [FA]1/2 of CPA displacement; for Kd / IC50: 1× PBS pH 7.4, 25°C, triplicate; for Interaction Free Energy: from Kd of CPA displacement; for IC50: read-out: [FA]1/2, fatty acid concentration that halves the CPA fluorescence, COMPcc ~0.1 µM, CPA 0.4 µM
T1 sequence (P35444 27-72): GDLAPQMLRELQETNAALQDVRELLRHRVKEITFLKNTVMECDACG
Protocol: Steady-state fluorescence spectra were measured on a Fluorolog-3 Horiba Jobin Yvon spectrofluorometer (Edison, NJ). The sample was held in a 10×10 mm quartz cuvette equipped with a continuous stirrer. The data were analyzed with Sigmaplot (Point Richmond, CA) software. The reaction was thermostatically controlled at 25°C by a Jeio-Tech refrigerating bath circulator (Des Plaines, IL). All fluorescence data were collected in 1× PBS buffer, pH 7.4. From the fluorescence enhancement profile of CPA, the fraction of ligand bound protein (f) can be calculated using: [drawing 1] (1) where F0 is the fluorescence of protein sample when no CPA has been added, F is the protein fluorescence at any given CPA concentration and F420 is the protein fluorescence in the presence of 3 µM of CPA. In the case of one ligand binding site, f follows a hyperbolic dependence upon ligand concentration given by: [drawing 2] (2) where B is a constant, Kd is the dissociation constant and [L]free is the concentration of free ligand (in this case CPA).
The probe CPA can also be used to characterize the binding of other fatty acids to COMPcc. The addition of fatty acids (FA) to the CPA-COMPcc complex will displace CPA leading to a decrease in fluorescence. […] In the case where there is no FA added the concentrations are [COMPcc] = [COMPcc]0 and [CPA]≈[CPA]0 = 0.4 µM. In this case the concentration of the CPA-COMPcc complex will be equal to: [drawing 5] (5) At [drawing 6] ,the concentration of the COMPcc-CPA complex is equal to one half the initial: [drawing 7] (6) Writing a mass balance for COMPcc we obtain: [drawing 8] (7) When [drawing 9] : [drawing 10] (8) The dissociation constant [drawing 11] can be calculated using the value of [FA]1/2 (the amount of fatty acid that reduces the CPA fluorescence to half its original value.

COMPcc [3] = system: COMPcc; parameters: method as in PMID 9736606; conditions: ligand bound in the channel; ref [9]; cited from earlier work
COMPcc [4] = target: T2, COMPcc (Rattus norvegicus, UniProt P35444, G27M/H53Q/R54Q); assay: Fluorescence enhancement of cis-parinaric acid (CPA) on binding to COMPcc
T2 construct: The coiled-coil domain of rat COMPcc comprising residues 27–72 was prepared as described previously; made in house; host or cells: E. coli
T2 sequence (P35444 27-72 G27M/H53Q/R54Q): T1 sequence (P35444 27-72) with G1M, H27Q, R28Q
Protocol: The coiled-coil domain of rat COMPcc comprising residues 27–72 was prepared as described previously. Purified COMPcc was dialyzed against PBS pH 7.4 and concentrated to 10 mg/mL using an 10 kDa Amicon membrane (Millipore).
Steady-state fluorescence spectra were measured on a Fluorolog-3 Horiba Jobin Yvon spectrofluorometer (Edison, NJ). The sample was held in a 10×10 mm quartz cuvette equipped with a continuous stirrer. The data were analyzed with Sigmaplot (Point Richmond, CA) software. The reaction was thermostatically controlled at 25°C by a Jeio-Tech refrigerating bath circulator (Des Plaines, IL). All fluorescence data were collected in 1× PBS buffer, pH 7.4. From the fluorescence enhancement profile of CPA, the fraction of ligand bound protein (f) can be calculated using: [drawing 1] (1) where F0 is the fluorescence of protein sample when no CPA has been added, F is the protein fluorescence at any given CPA concentration and F420 is the protein fluorescence in the presence of 3 µM of CPA. In the case of one ligand binding site, f follows a hyperbolic dependence upon ligand concentration given by: [drawing 2] […] Therefore, the binding of CPA to COMPcc is consistent with hyperbolic one site binding and the experimentally determined binding constant was 0.7±0.1 µM.

Compound	Kd (COMPcc [2])	Interaction Free Energy (COMPcc [2])	IC50 (COMPcc [2])	increase of midpoint transition temperature (Tm) of unfolding (COMPcc [3])	also measured
CC1=C(/C=C/C(C)=C/C=C/C(C)=C/CO)C(C)(C)CCC1 [vitamin A]	–	–	–	–	Interaction Free Energy (Q54I): -8.3 kcal/mol; Kd (Q54I): 800 nM; Interaction Free Energy (COMPcc [1]): -8.4 kcal/mol; Kd (COMPcc [1]): 600 nM
CCCCCCCCCCCCCCCCCCCC(=O)O [C20:0 [Arachidic acid], Arachidic acid]	700 ± 100 nM	-8.42 ± 0.08 kcal/mol	280 ± 40 nM	–	–
C1CCCCC1 [cyclohexane]	–	–	–	2 °C	–
CC\C=C/C=C/C=C/C=C\CCCCCCCC(=O)O [cis-Parinaric acid]	–	–	–	–	Interaction Free Energy (COMPcc [4]; from Kd of direct CPA binding): -8.42 ± 0.08 kcal/mol; Kd (COMPcc [4]; hyperbolic one-site binding, excitation 320 nm, emission 420 nm, 1× PBS pH 7.4, 25°C): 700 ± 100 nM
CCCCCCCCCCCCCC(=O)O [C14:0 [Myristic acid], Myristic acid]	800 ± 100 nM	-8.31 ± 0.07 kcal/mol	320 ± 50 nM	–	–
c1ccccc1 [benzene]	–	–	–	2 °C	–
C=C1CC[C@H](O)C/C1=C/C=C1\CCC[C@]2(C)[C@@H]([C@H](C)CCCC(C)C)CC[C@@H]12 [vitamin D3]	–	–	–	8 °C	–
CCCCCCCC/C=C\CCCCCCCC(=O)O [C18:1 [Oleic acid], Oleic acid]	900 ± 100 nM	-8.24 ± 0.06 kcal/mol	390 ± 50 nM	–	–
CCCCCCCC/C=C/CCCCCCCC(=O)O [18:1 trans-9 elaidic acid]	–	–	–	10 °C	–
